Reference: patent US6461997B1, “Triazole sulfones having herbicidal activity” (Monsanto Technology LLC, priority 1999, dated 2002)

Experiments:
ABUTH (velvetleaf) [1] = test: Pre-plant incorporated (PPI) herbicidal activity, warm season; assay type: in vivo, Abutilon theophrasti
Outline: (§1)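 Compound-laden cover soil (organic solvent spray, mixed in) over seeds; 0.64 cm overhead water initially. Evaluated ~14 days: % inhibition relative to untreated.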

[2] = system: AGSST (creeping bentgrass); test: Pre-emergence herbicidal activity, cool season; assay type: in vivo, Agrostis stolonifera; settings: GR80 = lowest tested rate (300, 100, 30, 10 g/ha) with 80% or greater inhibition; approx. 14 days after treating; 18/13° C.
Outline: (§2)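 Seeds sown in sterilised fertilised topsoil received surface-applied compound in 50:50 acetone/water, typically at 300, 100, 30 and 10 g/ha, then greenhouse-grown at 30/21° C (warm-season species) or 18/13° C (cool-season species). Percent inhibition versus untreated plants was scored at about 14 days, giving GR80; an asterisk marks activity short of 80% at the top rate.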

AMARE (redroot pigweed) = test: Pre-emergence herbicidal activity, warm season; assay type: in vivo, Amaranthus retroflexus; settings: GR80 = lowest tested rate (300, 100, 30, 10 g/ha) with 80% or greater inhibition; approx. 14 days after treating; 30/21° C.
Outline: as §2

DATST (jimsonweed) = test: Pre-emergence herbicidal activity, warm season; assay type: in vivo, Datura stramonium; settings: GR80 = lowest tested rate (300, 100, 30, 10 g/ha) with 80% or greater inhibition; approx. 14 days after treating; 30/21° C.
Outline: as §2

[3] = system: LAMPU (purple deadnettle); test: Pre-plant incorporated (PPI) herbicidal activity, cool season; assay type: in vivo, Lamium purpureum
Outline: as §1

SETVI (green foxtail) = test: as above; assay type: in vivo, Setaria viridis
Outline: as §1

LOLMG (annual ryegrass) = test: Pre-emergence herbicidal activity, cool season; assay type: in vivo, Lolium multiflorum; settings: GR80 = lowest tested rate (300, 100, 30, 10 g/ha) with 80% or greater inhibition; approx. 14 days after treating; 18/13° C.
Outline: as §2

KCHSC (kochia) [4] = test: Pre-emergence herbicidal activity, cool season; assay type: in vivo, Kochia scoparia; settings: lowest tested rate with 80% or greater inhibition; rates 300, 100, 30, 10 g/ha; about 14 days
Experimental: Tables 5 to 8 summarize results of tests conducted as described below to determine the pre-emergence herbicidal activity, in the form of a GR80 value, of illustrative compounds of this invention. […] Compounds of the invention were typically applied at rates of 300, 100, 30, and 10 g/ha. Where herbicidal activity was evident but 80% inhibition was not achieved at the highest rate tested, an asterisk (*) is shown in the following tables.
The pre-emergence tests were conducted by the following procedure. Topsoil was sieved to pass through a 1.27 cm screen. Fertilizer was added to the topsoil and the mixture was then sterilized by heating. The topsoil mixture was placed in a pot and compacted to a depth of 1.0 to 1.25 cm from the top of the pot. Seeds of each of several monocotyledonous and dicotyledonous annual plant species were placed on top of the soil. Additional soil was subsequently placed over the seeds to level-fill the pot. A known amount of each test compound dissolved or suspended in an appropriate organic solvent was diluted with a 50:50 mix of acetone and water and applied to the surface of the soil. After treatment the plants were placed in a greenhouse where they received 0.64 cm of overhead irrigation. All subsequent watering consisted of a light overhead mist and/or subirrigation as needed for germination and growth. Tables 5 and 6 below relate to warm season plant species which were placed after pre-emergence treatment in a greenhouse with a 30/21° C. day/night temperature regime. Tables 7 and 8 below relates to cool season plant species placed after pre-emergence treatment in a greenhouse or growth chamber with an 18/13° C. day/night temperature regime.
Approximately 14 days after planting and treating, the plants were observed and herbicidal efficacy recorded as percent inhibition by comparison with untreated plants.
The plant species usually regarded as weeds which were utilized in the tests are identified in the tables below according to the following legend, in which “d” indicates a dicotyledonous species and “m” a monocotyledonous species. All monocotyledonous species included in the tests herein are grasses.

[5] = system: GALAP (catchweed bedstraw); test: Pre-plant incorporated (PPI) herbicidal activity, cool season; assay type: in vivo, Galium aparine
Outline: as §1

[6] = system: VERPE (creeping speedwell); test: as above; assay type: in vivo, Veronica persicaria
Outline: as §1

ABUTH (velvetleaf) [7] = test: Pre-emergence herbicidal activity, warm season; assay type: in vivo, Abutilon theophrasti; settings: GR80 = lowest tested rate (300, 100, 30, 10 g/ha) with 80% or greater inhibition; approx. 14 days after treating; 30/21° C.
Outline: as §2

KCHSC (kochia) [8] = test: Pre-plant incorporated (PPI) herbicidal activity, cool season; assay type: in vivo, Kochia scoparia; settings: Bassia scoparia, weed, PPI application, read-out: Percent inhibition KCHSC
Outline: as §1

[9] = system: CIRAR (canada thistle (seedling)); test: Pre-plant incorporated (PPI) herbicidal activity, warm season; assay type: in vivo, Cirsium arvense; settings: GR80 = lowest tested rate with 80% or greater inhibition, approx. 14 days after treating, 30/21° C.
Outline: as §1

[10] = weed, PPI application, 100 g/ha
[11] = weed, PPI application, 300 g/ha
[12] = weed, PPI application, 900 g/ha
[13] = pre-plant incorporated, lowest tested rate with 80% or greater inhibition, about 14 days

Compound: CCN(CC)C(=O)n1cnc(S(=O)(=O)C(F)(F)C(F)(F)Br)n1 [Example 4]
- Percent inhibition ABUTH (ABUTH (velvetleaf) [1]; PPI application, 30 g/ha): 0%
- Percent inhibition ABUTH (ABUTH (velvetleaf) [1]; PPI application, 100 g/ha): 0%
- Percent inhibition ABUTH (ABUTH (velvetleaf) [1]; PPI application, 300 g/ha): 20%
- Percent inhibition ABUTH (ABUTH (velvetleaf) [1]; PPI application, 900 g/ha): 70%
- Pre-emergence activity (GR80) AGSST [2]: 10 g/ha
- Pre-emergence activity (GR80) AMARE (AMARE (redroot pigweed)): 100 g/ha
- Pre-emergence activity (GR80) DATST (DATST (jimsonweed)): 300 g/ha
- Percent inhibition LAMPU ([3]; weed, PPI application, 30 g/ha): 40%
- Percent inhibition LAMPU [3, 10]: 80%
- Percent inhibition LAMPU [3, 11]: 80%
- Percent inhibition LAMPU [3, 12]: 90%
- Percent inhibition SETVI (SETVI (green foxtail); weed, PPI application, 30 g/ha): 99%
- Percent inhibition SETVI (SETVI (green foxtail); [10]): 100%
- Percent inhibition SETVI (SETVI (green foxtail); [11]): 100%
- Percent inhibition SETVI (SETVI (green foxtail); [12]): 100%
- Pre-emergence activity (GR80) LOLMG (LOLMG (annual ryegrass)): 300 g/ha
- Pre-emergence activity GR80, KCHSC (KCHSC (kochia) [4]): 100 g/ha
- Percent inhibition GALAP ([5]; weed, PPI application, 30 g/ha): 75%
- Percent inhibition GALAP [5, 10]: 100%
- Percent inhibition GALAP [5, 11]: 100%
- Percent inhibition GALAP [5, 12]: 100%

Compound: CCN(CC)C(=O)n1cnc(S(=O)(=O)C(F)(F)SC)n1 [Example 9]
- Percent inhibition ABUTH (ABUTH (velvetleaf) [1]; PPI application, 30 g/ha): 0%
- Percent inhibition ABUTH (ABUTH (velvetleaf) [1]; PPI application, 100 g/ha): 0%
- Percent inhibition ABUTH (ABUTH (velvetleaf) [1]; PPI application, 300 g/ha): 60%
- Percent inhibition ABUTH (ABUTH (velvetleaf) [1]; PPI application, 900 g/ha): 90%
- Pre-emergence activity (GR80) AGSST [2]: 30 g/ha
- Pre-emergence activity (GR80) AMARE (AMARE (redroot pigweed)): 300 g/ha
- Pre-emergence activity (GR80) DATST (DATST (jimsonweed)): 300 g/ha
- Percent inhibition LAMPU ([3]; weed, PPI application, 30 g/ha): 0%
- Percent inhibition LAMPU [3, 10]: 40%
- Percent inhibition LAMPU [3, 11]: 100%
- Percent inhibition LAMPU [3, 12]: 95%
- Percent inhibition SETVI (SETVI (green foxtail); weed, PPI application, 30 g/ha): 99%
- Percent inhibition SETVI (SETVI (green foxtail); [10]): 100%
- Percent inhibition SETVI (SETVI (green foxtail); [11]): 100%
- Percent inhibition SETVI (SETVI (green foxtail); [12]): 100%
- Pre-emergence activity (GR80) LOLMG (LOLMG (annual ryegrass)): * (activity observed, at least at highest rate, but <80% inhibition)
- Pre-emergence activity GR80, KCHSC (KCHSC (kochia) [4]): 300 g/ha
- Percent inhibition GALAP ([5]; weed, PPI application, 30 g/ha): 100%
- Percent inhibition GALAP [5, 10]: 70%
- Percent inhibition GALAP [5, 11]: 100%
- Percent inhibition GALAP [5, 12]: 100%

Compound: C=C(C)CC(F)(F)S(=O)(=O)c1ncn(C(=O)N(CC)CC)n1 [Example 18]
- inhibition at 10 g/ha (ABUTH (velvetleaf) [1]; Abutilon theophrasti, PPI application, 10 g/ha, read-out: Percent inhibition ABUTH): 0%
- inhibition at 30 g/ha (ABUTH (velvetleaf) [1]; Abutilon theophrasti, PPI application, 30 g/ha, read-out: Percent inhibition ABUTH): 0%
- inhibition at 100 g/ha (ABUTH (velvetleaf) [1]; Abutilon theophrasti, PPI application, 100 g/ha, read-out: Percent inhibition ABUTH): 0%
- inhibition at 300 g/ha (ABUTH (velvetleaf) [1]; Abutilon theophrasti, PPI application, 300 g/ha, read-out: Percent inhibition ABUTH): 70%
- inhibition at 900 g/ha (ABUTH (velvetleaf) [1]; Abutilon theophrasti, PPI application, 900 g/ha, read-out: Percent inhibition ABUTH): 90%
- PPI activity (GR80) ABUTH (ABUTH (velvetleaf) [1]; pre-plant incorporated, GR80 = lowest tested rate with 80% or greater inhibition, approx. 14 days after treating, 30/21° C.): 100 g/ha
- Pre-emergence activity (GR80) AGSST [2]: 30 g/ha
- Pre-emergence activity (GR80) AMARE (AMARE (redroot pigweed)): 300 g/ha
- Pre-emergence activity (GR80) DATST (DATST (jimsonweed)): 300 g/ha
- inhibition at 10 g/ha ([3]; Lamium purpureum, weed, PPI application, 10 g/ha, read-out: Percent inhibition LAMPU): 0%
- inhibition at 30 g/ha ([3]; Lamium purpureum, weed, PPI application, 30 g/ha, read-out: Percent inhibition LAMPU): 0%
- inhibition at 300 g/ha ([3]; Lamium purpureum, weed, PPI application, 300 g/ha, read-out: Percent inhibition LAMPU): 0%
- inhibition at 900 g/ha ([3]; Lamium purpureum, weed, PPI application, 900 g/ha, read-out: Percent inhibition LAMPU): 70%
- PPI activity GR80, LAMPU [3, 13]: 10 g/ha
- inhibition at 10 g/ha (SETVI (green foxtail); Setaria viridis, weed, PPI application, 10 g/ha, read-out: Percent inhibition SETVI): 100%
- inhibition at 30 g/ha (SETVI (green foxtail); Setaria viridis, weed, PPI application, 30 g/ha, read-out: Percent inhibition SETVI): 100%
- inhibition at 100 g/ha (SETVI (green foxtail); Setaria viridis, weed, PPI application, 100 g/ha, read-out: Percent inhibition SETVI): 100%
- inhibition at 300 g/ha (SETVI (green foxtail); Setaria viridis, weed, PPI application, 300 g/ha, read-out: Percent inhibition SETVI): 60%
- inhibition at 900 g/ha (SETVI (green foxtail); Setaria viridis, weed, PPI application, 900 g/ha, read-out: Percent inhibition SETVI): 100%
- PPI activity GR80, SETVI (SETVI (green foxtail); [13]): 30 g/ha
- Pre-emergence activity (GR80) LOLMG (LOLMG (annual ryegrass)): 300 g/ha
- PPI activity GR80, VERPE [6, 13]: [empty]
- inhibition at 10 g/ha ([6]; weed, PPI application, 10 g/ha, read-out: Percent inhibition VERPE): 0%
- inhibition at 30 g/ha ([6]; weed, PPI application, 30 g/ha, read-out: Percent inhibition VERPE): 20%
- inhibition at 100 g/ha ([6]; weed, PPI application, 100 g/ha, read-out: Percent inhibition VERPE): 80%
- inhibition at 300 g/ha ([6]; weed, PPI application, 300 g/ha, read-out: Percent inhibition VERPE): 95%
- inhibition at 900 g/ha ([6]; weed, PPI application, 900 g/ha, read-out: Percent inhibition VERPE): 99%
- inhibition at 10 g/ha ([5]; Galium aparine, weed, PPI application, 10 g/ha, read-out: Percent inhibition GALAP): 70%
- inhibition at 30 g/ha ([5]; Galium aparine, weed, PPI application, 30 g/ha, read-out: Percent inhibition GALAP): 60%
- inhibition at 100 g/ha ([5]; Galium aparine, weed, PPI application, 100 g/ha, read-out: Percent inhibition GALAP): 70%
- inhibition at 300 g/ha ([5]; Galium aparine, weed, PPI application, 300 g/ha, read-out: Percent inhibition GALAP): 100%
- inhibition at 900 g/ha ([5]; Galium aparine, weed, PPI application, 900 g/ha, read-out: Percent inhibition GALAP): 100%
- PPI activity GR80, GALAP [5, 13]: 100 g/ha
- Pre-emergence activity (GR80) ABUTH (ABUTH (velvetleaf) [7]): * (activity observed, at least at highest rate, but <80% inhibition)
- inhibition at 10 g/ha (KCHSC (kochia) [8]; 10 g/ha): 40%
- inhibition at 30 g/ha (KCHSC (kochia) [8]; 30 g/ha): 80%
- inhibition at 100 g/ha (KCHSC (kochia) [8]; 100 g/ha): 80%
- inhibition at 300 g/ha (KCHSC (kochia) [8]; 300 g/ha): 100%
- inhibition at 900 g/ha (KCHSC (kochia) [8]; 900 g/ha): 100%
- PPI activity (GR80) CIRAR [9]: 30 g/ha
